Source: patent publication US20110294843A1, “ADMINISTRATION SCHEME OF POLAR OPIOID METABOLITES FOR POST-OPERATIVE PAIN MANAGEMENT” (PAION UK Limited, priority 2008, published 2011)
Like-named read-outs stand apart in the source and are kept apart here.

Key:
[1] = Pharmacokinetics of M6G at single and multiple intravenous doses in healthy volunteers; type: in vivo, human; conditions: for MRT inf / Vd / half-life / clearance / AUC(0-inf) / Cmax: both sexes, human, plasma, iv; for MRT inf: read-out: MRT0-∞; for Vd: read-out: Vss; for half-life: read-out: t½ (converted); for AUC(0-inf): read-out: AUC0-∞; for Cmax: read-out: Cmax; for CLss / MRT24-∞: multiple dose, Dose 5-15 mg
Method: Healthy male and female subjects were divided into two groups (A and B) with 12 in each. Group A received three single intravenous infusions of M6G over 5 mins at levels of 15, 30 and 45 mg/70 kg in random order, having taken 50 mg of naloxone orally 24 hrs beforehand. There was a seven-day wash-out period between each dose. Blood samples were taken pre-dose and at the following time-points: 3, 5, 15, 30 mins and 1, 2, 3, 4, 6, 12 and 24 hrs after the start of the infusion. Group, B received five, 15 mg/70 kg, intravenous infusions of M6G, each over five minutes, at 6-hourly intervals, having taken a 50 mg oral dose of naloxone 24 hrs before the first infusion. Blood samples were taken before each of the 5 doses, and at 3, 5, 15, 30 mins and at 1, 2, 3 and 4 hrs after the initiation of the 1st and 5th infusions and at 6 hrs after the 5th dose. Vital signs (supine blood pressure, pulse, respiratory rate and oral temperature), respiration rate, pulse oximetry and adverse events were monitored during the study. Plasma levels of M6G were measured using HPLC/ms/ms.

[2] = tested on: patients following hip-replacement surgery; test: M6G001A study: post-operative analgesia following hip-replacement surgery; type: in vivo, human; conditions: all doses (10, 15, 20 mg/70 kg IV bolus followed by PCA)
Excerpt: . This was a double-blind, randomised study. […]

[3] = 15 mg/70 kg, single 5 min iv infusion 15 mg, Geometric Mean
[4] = 15 mg/70 kg, single 5 min iv infusion 15 mg, Mean
[5] = 15 mg/70 kg, single 5 min iv infusion 15 mg, Median
[6] = 30 mg/70 kg, single 5 min iv infusion 30 mg, Geometric Mean
[7] = 30 mg/70 kg, single 5 min iv infusion 30 mg, Mean
[8] = 30 mg/70 kg, single 5 min iv infusion 30 mg, Median
[9] = 45 mg/70 kg, single 5 min iv infusion 45 mg, Geometric Mean
[10] = 45 mg/70 kg, single 5 min iv infusion 45 mg, Mean
[11] = 45 mg/70 kg, single 5 min iv infusion 45 mg, Median

## CN1CC[C@]23c4c5ccc(O)c4O[C@H]2[C@@H](OC2OC(C(=O)O)C(O)C(O)C2O)C=CC3[C@H]1C5 (stereo partly drawn) [M6G, (5α,6α)-7,8-Didehydro-4,5-epoxy-3-hydroxy-17-methylmorphinan-β-yl-β-D-glucopyranosiduronic acid]
[1]; [3]
  MRT inf: 1.64 h
  Vd: 12.9 L
  half-life: 1.46 h
[1]; [4]
  clearance: 133 mL/min
  AUC(0-inf): 1930 ng·h/mL
  Cmax: 1860 ng/mL
  MRT inf: 1.65 h
  Vd: 13 L
  half-life: 1.48 h
[1]; [5]
  clearance: 133 mL/min
  AUC(0-inf): 1880 ng·h/mL
  Cmax: 1650 ng/mL
  MRT inf: 1.69 h
  Vd: 12.6 L
  half-life: 1.56 h
[1]; [6]
  clearance: 121 mL/min
  AUC(0-inf): 4140 ng·h/mL
  Cmax: 3870 ng/mL
  MRT inf: 1.76 h
  Vd: 12.7 L
  half-life: 1.7 h
[1]; [7]
  clearance: 122 mL/min
  AUC(0-inf): 4190 ng·h/mL
  Cmax: 3980 ng/mL
  MRT inf: 1.77 h
  Vd: 12.8 L
  half-life: 1.72 h
[1]; [8]
  clearance: 125 mL/min
  AUC(0-inf): 4000 ng·h/mL
  Cmax: 4110 ng/mL
  MRT inf: 1.81 h
  Vd: 12.2 L
  half-life: 1.81 h
[1]; [9]
  clearance: 128 mL/min
  AUC(0-inf): 5850 ng·h/mL
  Cmax: 5720 ng/mL
  MRT inf: 1.66 h
  Vd: 12.8 L
  half-life: 1.62 h
[1]; [10]
  clearance: 130 mL/min
  AUC(0-inf): 5910 ng·h/mL
  Cmax: 5860 ng/mL
  MRT inf: 1.68 h
  Vd: 12.9 L
  half-life: 1.64 h
[1]; [11]
  clearance: 136 mL/min
  AUC(0-inf): 5500 ng·h/mL
  Cmax: 5860 ng/mL
  MRT inf: 1.78 h
  Vd: 13.1 L
  half-life: 1.69 h
[1]; five 15 mg iv infusions at 6 hour intervals
  accumulation, AUC0-∞: 2.9%
[1]; healthy volunteers, single and multiple iv doses
  safety: No clinically significant safety issues
[1]; Geometric Mean
  CLss: 7261 mL/h
  MRT24-∞: 1.63 h
[1]; Mean
  CLss: 7303 mL/h
  MRT24-∞: 1.65 h
[1]; Median
  CLss: 7173 mL/h
  MRT24-∞: 1.64 h
[2]
  tolerability: well tolerated
